Data reported in PMC6010047, “Design, synthesis and biological evaluation of novel hydroxy-phenyl-1H-benzimidazoles as radical scavengers and UV-protective agents” (Journal of Enzyme Inhibition and Medicinal Chemistry, 2017).

Columns and labels:
[1] = In vitro evaluation of filtering parameters of formulations on PMMA plates (Diffey and Robson); conditions: for SPF / UVA/UVB / UVAPF / λc (critical wavelength): 3% (w/w) in O/W formulation, PMMA plates
Source text: It was decided to use a standard formulation oil in water (O/W).
In vitro approaches consist in applying a thin film of sunscreen product on an artificial substrate and test, via spectrophotometric measures, the amount of UV radiation passing through the film. Several different artificial substrates are available for this type of analysis; the substrate should be as closed as possible to the physical characteristics of the skin. Among the substrates available for these purposes, the substrate used in this study to analyse the sunscreen products were PMMA plates. This substrate is easily handled and can be supplied with a reproducible roughness. WW5 PMMA plates have been purchased from Schonberg GmbH (Munich, Germany). The plates, used in this study, have an area of 25 cm^2 and standardized […] roughness. Transmittance and absorbance measurements were carried out by a SHIMAZDU UV-2600 provided of integrating sphere ISR 2600 60 mm and coupled with a SPF determination software and a PMMA plate with approximately 15 μL of glycerin served as reference.
In order to evaluate possible activity as sun filters and antioxidants, suitable in the development of novel class of dualistic sunscreens, the synthesized molecules were included at the concentration of 3% (w/w) in a topical formulation. To this end standard oil in water (O/W) formulation was devised, taking into account the absence of any UV filtering and/or antioxidant molecule, in order to obtain a reference formulation. It was not possible to analyze compound 7 in the formulation because of high instability (phase separation induced by 7). Formulations containing the active ingredients were tested for their SPF efficacy by the in vitro method derived from Diffey and Robson[32], in comparison with the same formulation containing the reference PBSA.
This method is based on the measure of spectral transmission of ultraviolet radiation, with and without the sunscreen applied, through an irregular substrate that simulates the skin surface and permits transmission of UV radiation. Although with some limitation, the test is used to predict SPF in vivo and to screen the filtering activity of new molecules that cannot be tested by in vivo because of lacking of more data concerning safety. The critical wavelength (λc) for the test product is defined as that wavelength where the area under the absorbance spectrum for the irradiated product from 290 nm to λc is 90% of the integral of the absorbance spectrum from 290 nm to 400 nm. Critical wavelength value of greater than 370 nm is necessary, in order to satisfy requirements for broad-spectrum UVB/UVA protection and associated labeling. Polymethylmethacrylate plates (PMMA) with a specific roughness were a satisfactory substrate for this method, because they are UV-transparent, nonfluorescent, photostable and inert to all potential sunscreen formulation ingredients. Table 3 lists the data obtained for the model formulation containing the synthesized compounds. These parameters are necessary to evaluate whether a sunscreen fulfills the requirements for efficacy, and they are SPF, UVA protection factor (UVAPF), UVA/UVB ratio and critical wavelength.
A set of model formulations was prepared: an oil-in-water emulsion (O/W), without sunscreen molecules (Ref. A, Figure 5), prepared as reference formulation; two formulations containing PBSA or oxisol (12) at 3% were prepared (Ref. C and B, respectively, Figure 5), in order to evaluate the filter properties of oxisol (12). Moreover, as stated earlier, SPF booster properties were assayed on other four formulations including a mix of filters with a theoretical SPF value of 15 and 30, adding 3% of oxisol (12) or PBSA (Ref. E, F, G, H, Figure 5). […]

[2] = UV spectra: λmax and molar extinction coefficient; type: physicochemical; conditions: for λ max: aqueous solution at pH 7; for ɛ (molar extinction coefficient): aqueous solution at pH 7, at λ max, linear regression Lambert–Beer
Experimental: Sun protection factor (SPF) is related to the UV absorption of the substances, so before including the molecules in cosmetic formulations we evaluated the wavelength of maximum absorption (λmax) and the molar extinction coefficient (ɛ) of each molecule in aqueous solution at pH 7. The UV spectra were recorded between 270 and 420 nm (20 nm higher and lower then UVA and UVB range) to verify the spectrum profile of the molecules within UVA and UVB region. UV spectrum of PBSA is an UVB filter and presents a λmax of 302 nm; after this peak, the absorbance fades going to higher wavelength until almost zero around 325 nm, and then, it provides no absorption in the UVA region. Molecules spectra overlapped for category according to the substituent in position 5 of the benzimidazole ring are shown in Figures 1, 2 and 3; PBSA spectrum is presented in all figures for comparison.
From the spectra appears that the lambda maxima (Table 2) of the new molecules shifted toward higher wavelength and in general the range of absorption curve was wider than PBSA. Within a group of molecules, the batochromic shift was more marked for the molecules that have a hydroxyl moiety in position 2 of the phenyl ring (4, 5, 6, 9, 10, 11, 13 and […]); the effect of ortho substituted is known to produce this shift toward higher wavelength. Increasing the number of auxochrome groups on phenyl ring an increment in the absorption range occurred, compounds with three hydroxyl on the phenyl ring (6, 11, 15) had the broadest spectrum and their lambda maxima shifted at the highest wavelength compared to the other compounds. The absorption spectrum of molecules with the same number and position of hydroxyl seemed only slightly influenced by the substituent in position 5 of the benzimidazole ring. After having established the lambda maxima for every compound, solutions at different concentrations were prepared to calculate the molar extinction coefficient by means of linear regression and applying Lambert–Beer equation (Table 2).

[3] = type: physicochemical
Experimental: HPLC analysis was performed using an Agilent 1100 Series HPLC System equipped with a G1315A DAD, and with a Hydro-RP C18 Synergi 80 Å column (4.6 × 150 mm, 4 μm) from Phenomenex, maintained at 25 °C during all the time of the analysis. The mobile phase consisted of water (0.01 M H3PO4) (solvent A) and acetonitrile (0.01 M H3PO4) (solvent B). • PBSA and 3: the determination was carried out in isocratic condition, A: 91%/B: 9%. Separation was monitored with absorbance detection at λmax of the molecule ±8 nm. The flow rate was 1.0 mL/min. • […]: the determination was carried out in isocratic condition, A: 84%/B: 16%. Separation was monitored with absorbance detection at λmax of the molecule ±8 nm. The flow rate was 1.0 mL/min
Molecules 3 and 12 were challenged in accelerated stability studies against the parent compound. The formulations were submitted to accelerated aging at 40 °C and analyzed at specific intervals, with HPLC.

Row | SMILES | SPF [1] | UVA/UVB [1] | UVAPF [1] | λc (critical wavelength) [1] [nm] | SPF of emulsion (Figure 5) ([1]; O/W emulsion with 3% of the molecule only) | λ max [2] [nm] | ɛ (molar extinction coefficient) [2] | % of remaining compounds T0 [3] [%] | % of remaining compounds T7 [3] | % of remaining compounds T14 [3] | % of remaining compounds T21 [3] | % of remaining compounds T28 [3] | % of remaining compounds T35 [3] | % of remaining compounds T49 [3] | % of remaining compounds T63 [3]
1 | O=C(O)c1ccc2[nH]c(-c3ccc(O)c(O)c3)nc2c1 [Compound 12, 2-(3,4-Dihydroxy-phenyl)-1H-benzimidazole-5-carboxylic acid] | 2.21 ± 0.17 | 1.00 ± 0.04 | 1.88 ± 0.12 | 370 | does not present an appreciable value of SPF | 317 | 21 000 | 100 | 95,4% | 95,4% | 95,1% | 92,8% | 86,9% | 86,9% | 86,8%
2 | O=S(=O)(O)c1ccc2[nH]c(-c3ccccc3)nc2c1 [PBSA, 2-phenyl-1H-benzimidazole-5-sulfonic acid, reference compound] | 4.56 ± 1.09 | 0.26 ± 0.05 | 1.04 ± 0.06 | 333 |  | 302 | 25 000 | 100 | 99,4% | 98,1% | 97,2% | 96,4% | 94% | 92% | 90%
